The target of data set [1] is ATR (Homo sapiens (Human), UniProt Q13535). Description: ATR kinase inhibition assay (HTRF). The settings on record: p53 substrate, ATP 150 nM. It is filed as biochemical. For orientation: Time-resolved FRET reads energy transfer from a long-lived donor to a nearby acceptor.
The test system of data set [2] is LOVO cells. The data set is described as follows: Cell proliferation assay (CellTiter-Glo). It is filed as cell-based. The settings on record: Homo sapiens, 96 hours. A general note: Cellular ATP, detected with luciferase, serves as a proxy for viable cell number.
A short description of data set [3]: Metabolic stability in human liver microsomes. It is filed as in vitro ADME. The procedure:
Drug-like Properties: Concepts, Structure Design and Methods: from ADME to Toxicity Optimization. […] Screen. […] After incubation for appropriate time (such as 5, 10, 20, 30 and 60 minutes), samples were collected, and an appropriate termination solution (glacial acetonitrile containing 200 ng/mL tolbutamide and 200 ng/mL labetalol (i.e. acetonitrile at 4° C.)) was added to stop the reaction. Sample treatment (n=1): each appropriate sample was added, vortexed and centrifuged at high speed. The supernatants were collected, and detected the substrate by HPLC-MS/MS. The peak area at the 0 min was set as 100%. The peak areas at other time points were converted to percentages of the remaining amount. The natural logarithms of the percentage of remaining amount at each time point was plotted against the incubation time, and the slope (−k) was calculated. Then, Clint (μL/min/mg) and half-life (T½, min) of the compounds were calculated following the equation: Inherent clearance rate (Clint)=(k*Volume of incubation solution)/Mass of liver microsomes.
Background: Microsomes from liver hold many membrane-bound enzymes, among them those of drug oxidation.

Data set [4] is described as follows: Equilibrium solubility in FaSSIF. In kind it is physicochemical. Particulars: thermodynamic from solid; FaSSIF pH 6.5, shaken 24 hours. As for the experimental part:
The compound powder was weighed into a volumetric flask, 450 μL of pH 6.5 FaSSIF solution was added to obtain a supersaturated suspension, the samples were vortexed for at least 2 minutes, and the volumetric flasks were shaken on a vibrating screen at 800 rpm for 24 hours, and then centrifuged at 4000 rpm for 20 minutes. The compressed filtrate was added to a HPLC system, and the concentrations were calculated by a standard curve method.

This is an account of results in patent US20240294550A1, “8-OXA-3-AZABICYCLO[3.2.1]OCTANE COMPOUNDS OR SALT THEREOF, AND PREPARATION METHOD AND USE THEREOF” (LITTDD MEDICINES LTD, priority 2021, published 2024).

As a reminder, the IC50 is the concentration that gives 50% inhibition. A low value points to greater potency. For orientation: half-life means the time in which the quantity being followed falls by half. As a reminder, the solubility is the dissolved amount per volume that the medium holds. Low values mean little dissolved substance, high ones much dissolved substance.

Converted amounts (≈) assume the structure as drawn.

ATR, sequence (Q13535 whole entry): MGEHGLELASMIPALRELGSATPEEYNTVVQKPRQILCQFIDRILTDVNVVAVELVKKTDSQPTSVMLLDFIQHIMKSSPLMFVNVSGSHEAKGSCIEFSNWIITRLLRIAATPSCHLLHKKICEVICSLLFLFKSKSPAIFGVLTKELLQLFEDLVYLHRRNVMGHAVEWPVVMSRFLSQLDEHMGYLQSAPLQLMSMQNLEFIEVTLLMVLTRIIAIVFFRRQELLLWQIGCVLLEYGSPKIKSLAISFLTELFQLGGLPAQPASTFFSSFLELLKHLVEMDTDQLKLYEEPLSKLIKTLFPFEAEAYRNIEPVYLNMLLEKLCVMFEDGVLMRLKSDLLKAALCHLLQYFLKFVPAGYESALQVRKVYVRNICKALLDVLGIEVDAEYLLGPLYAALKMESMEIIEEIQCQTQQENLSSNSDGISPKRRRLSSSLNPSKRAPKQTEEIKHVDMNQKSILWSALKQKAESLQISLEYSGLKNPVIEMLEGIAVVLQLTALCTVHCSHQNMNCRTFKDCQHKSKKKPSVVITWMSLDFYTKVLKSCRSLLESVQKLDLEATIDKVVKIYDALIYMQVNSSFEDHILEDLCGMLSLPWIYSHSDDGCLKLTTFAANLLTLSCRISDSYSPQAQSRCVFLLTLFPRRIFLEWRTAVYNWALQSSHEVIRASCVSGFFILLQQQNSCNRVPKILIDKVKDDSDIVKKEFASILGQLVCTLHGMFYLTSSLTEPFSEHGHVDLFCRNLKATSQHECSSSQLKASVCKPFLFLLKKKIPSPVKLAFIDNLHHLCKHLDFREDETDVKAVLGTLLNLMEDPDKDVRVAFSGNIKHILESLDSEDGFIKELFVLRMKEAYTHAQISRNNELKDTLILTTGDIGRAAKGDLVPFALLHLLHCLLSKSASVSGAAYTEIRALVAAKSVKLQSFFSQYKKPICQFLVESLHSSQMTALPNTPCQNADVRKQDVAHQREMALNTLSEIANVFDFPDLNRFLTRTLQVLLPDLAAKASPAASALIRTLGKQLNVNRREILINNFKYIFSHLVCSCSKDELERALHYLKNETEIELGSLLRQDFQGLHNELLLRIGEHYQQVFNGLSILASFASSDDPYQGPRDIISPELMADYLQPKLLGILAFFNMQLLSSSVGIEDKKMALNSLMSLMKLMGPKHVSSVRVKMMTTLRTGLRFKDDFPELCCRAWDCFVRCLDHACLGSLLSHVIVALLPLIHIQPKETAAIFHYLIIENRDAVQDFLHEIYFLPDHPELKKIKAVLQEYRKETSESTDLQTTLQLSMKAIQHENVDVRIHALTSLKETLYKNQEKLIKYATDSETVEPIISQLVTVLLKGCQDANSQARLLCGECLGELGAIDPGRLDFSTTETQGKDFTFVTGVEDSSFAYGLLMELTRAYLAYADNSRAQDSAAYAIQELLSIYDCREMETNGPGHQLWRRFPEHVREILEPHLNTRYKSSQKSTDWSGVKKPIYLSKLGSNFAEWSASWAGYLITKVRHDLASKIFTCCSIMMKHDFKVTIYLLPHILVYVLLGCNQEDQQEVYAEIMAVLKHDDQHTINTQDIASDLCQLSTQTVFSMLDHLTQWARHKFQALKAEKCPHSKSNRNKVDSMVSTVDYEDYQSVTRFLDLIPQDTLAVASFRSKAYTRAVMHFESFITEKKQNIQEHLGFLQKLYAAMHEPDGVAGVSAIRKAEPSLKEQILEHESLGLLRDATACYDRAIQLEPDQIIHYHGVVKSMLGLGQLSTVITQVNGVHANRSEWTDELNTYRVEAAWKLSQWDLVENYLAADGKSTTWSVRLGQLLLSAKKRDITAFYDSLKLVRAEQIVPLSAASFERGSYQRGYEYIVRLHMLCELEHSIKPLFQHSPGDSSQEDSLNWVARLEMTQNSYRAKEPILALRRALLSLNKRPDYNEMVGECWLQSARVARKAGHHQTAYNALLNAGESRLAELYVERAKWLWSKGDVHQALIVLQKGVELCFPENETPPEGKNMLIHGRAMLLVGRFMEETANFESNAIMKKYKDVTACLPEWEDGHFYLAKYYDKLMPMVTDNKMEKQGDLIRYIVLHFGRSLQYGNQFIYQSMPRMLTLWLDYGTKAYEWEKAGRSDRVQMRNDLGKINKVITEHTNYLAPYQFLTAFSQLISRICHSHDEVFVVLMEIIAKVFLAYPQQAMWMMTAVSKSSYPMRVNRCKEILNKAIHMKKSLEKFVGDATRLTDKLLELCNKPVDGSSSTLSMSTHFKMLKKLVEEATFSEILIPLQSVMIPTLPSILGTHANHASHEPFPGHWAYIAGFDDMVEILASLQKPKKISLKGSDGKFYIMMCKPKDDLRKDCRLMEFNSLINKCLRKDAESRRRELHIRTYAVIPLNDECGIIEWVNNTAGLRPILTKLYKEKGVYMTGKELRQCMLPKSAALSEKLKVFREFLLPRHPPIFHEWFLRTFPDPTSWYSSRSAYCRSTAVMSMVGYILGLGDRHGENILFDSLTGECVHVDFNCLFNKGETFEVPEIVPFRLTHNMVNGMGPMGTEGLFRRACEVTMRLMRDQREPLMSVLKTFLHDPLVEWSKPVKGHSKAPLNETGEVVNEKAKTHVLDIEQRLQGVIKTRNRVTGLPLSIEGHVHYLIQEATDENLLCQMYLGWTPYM
ATR, sequence (Q8WXE1 whole entry partner): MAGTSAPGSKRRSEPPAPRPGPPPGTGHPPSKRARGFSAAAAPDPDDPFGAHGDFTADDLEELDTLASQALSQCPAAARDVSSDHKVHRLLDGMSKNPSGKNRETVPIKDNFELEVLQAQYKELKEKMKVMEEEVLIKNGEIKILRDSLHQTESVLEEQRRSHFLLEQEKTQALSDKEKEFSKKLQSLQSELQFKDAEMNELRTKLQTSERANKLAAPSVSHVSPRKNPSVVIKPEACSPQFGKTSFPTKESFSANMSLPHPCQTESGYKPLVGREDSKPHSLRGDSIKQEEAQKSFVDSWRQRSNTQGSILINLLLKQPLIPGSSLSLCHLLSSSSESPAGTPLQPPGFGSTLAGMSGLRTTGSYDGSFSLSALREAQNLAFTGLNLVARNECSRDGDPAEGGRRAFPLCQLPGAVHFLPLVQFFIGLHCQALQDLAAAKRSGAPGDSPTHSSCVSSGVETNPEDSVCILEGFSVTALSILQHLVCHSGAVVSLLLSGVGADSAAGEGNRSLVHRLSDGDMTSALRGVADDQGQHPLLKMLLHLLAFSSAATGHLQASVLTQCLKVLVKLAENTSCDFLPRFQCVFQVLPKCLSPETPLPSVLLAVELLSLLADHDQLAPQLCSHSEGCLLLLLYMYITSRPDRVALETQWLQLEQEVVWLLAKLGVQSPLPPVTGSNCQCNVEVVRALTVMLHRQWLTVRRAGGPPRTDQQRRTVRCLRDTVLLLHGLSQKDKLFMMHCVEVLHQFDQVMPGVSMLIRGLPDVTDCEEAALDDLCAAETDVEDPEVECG

As for `C[C@@H]1COCCN1c1cc(N2CC3CCC(C2)O3)nc2c(-c3cc[nH]n3)cnn12` [Example 1, 3-(7-((R)-3-methylmorpholino)-3-(1H-pyrazol-3-yl)pyrazolo[1,5-a]pyrimidin-5-yl)-8-oxa-3-azabicyclo[3.2.1]octane], the IC50 in data set [1] was found to be 17.4 nM; in data set [2] it was 304 nM. In data set [3] (1 μM compound), this compound registered a half-life at 1 μM of 1.97 h. Also, the “Remain % (T = 60 min)” value in data set [3] (T = 60 min) is given as 65.0%. Besides, the microsomal CLint at 1 μM in data set [3] (read-out: CLint(mic)) amounted to 11.7 µL/min/mg. Moreover, the concentration in solution in data set [4] (solubility at 24 h) was 1140 µg/mL (≈ 2880 µM).
